Our source for the IC50 values is patent US9790221B2, “Heteroaryl compounds as IRAK inhibitors and uses thereof” (Merck Patent GmbH, priority 2014, dated 2017).

The target of test [1] is IRAK1 (His-TEV-IRAK1 (194-712)) (Homo sapiens (Human), UniProt P51617). Briefly: IRAK1 enzymatic assay. The class given is biochemical. Put shortly:
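Compounds ([…] down to 1 nM) were incubated 3 h at 30° C with His-TEV-IRAK1 (194-712, 15 ng/well) and 1 μM [33P]-labelled ATP in 50 mM Hepes pH 7.0, 10 mM MgCl2. After EDTA stop and washing, the retained autophosphorylation signal was measured by scintillation in streptavidin-coated plates.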

Test [2] has as its target IRAK4 (Homo sapiens (Human), UniProt Q9NWZ3). Briefly: IRAK4 enzymatic assay. It is filed as biochemical. Put shortly:
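Radiometric streptavidin FlashPlate read: 3 h, 30° C incubation of His-TEV-IRAK4 (20 ng/well), STK1-biotin substrate (300 nM) and ATP (2 μM, [^33P]-labelled) in Hepes pH 7.0, MgCl2 10 mM, MnCl2 5 mM. Compounds from 20 µM down to 1 nM, 2% DMSO controls; reaction quenched with EDTA.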

For test [3], the system named is TLR7 induced IL-6 secretion in human mononuclear cells (PBMC's). Nature of the test: TLR7 induced IL-6 in human PBMC's. It is filed as cell-based. Particulars: Homo sapiens, PBMC, read-out: TLR7 induced IL-6 secretion in hPBMC's (IC50). How it is done:
TLR7 Induced IL-6 in Human PBMC's
Human PBMC assay was used as one of the functional assay a to monitor the activity of IRAK1 and IRAK4 small molecule inhibitors on TLR7 induced IL-6 secretion in human mononuclear cells (PBMC's). Human PBMCs were prepared from buffy coats (whole blood enriched with leukocytes and platelets) obtained from healthy volunteers used either fresh or frozen are plated in assay media (RPMI+2% P/S/L-glu+10% HI-FBS) and pre-treated with compounds in DMSO/media (range of concentrations from 25 uM to 0.4 nM) or controls (0.25% DMSO) for 30 minutes at 37° C. in assay media. Following pre-treatment with IRAK1 and IRAK4 inhibitors, PBMC's were stimulated with TLR7 specific ligand (2 uM) overnight (16-18 hrs) at 37° C. After incubation supernatant was transferred to 384 well PE AlphaPlate-384 (6005350) and IL-6 is quantified using Perkin Elmer IL-6 Alpha LISA kit (AL223C). Plates were read on an Envision® plate reader with Alpha Technology®.

IRAK4, sequence (Q9NWZ3 whole entry): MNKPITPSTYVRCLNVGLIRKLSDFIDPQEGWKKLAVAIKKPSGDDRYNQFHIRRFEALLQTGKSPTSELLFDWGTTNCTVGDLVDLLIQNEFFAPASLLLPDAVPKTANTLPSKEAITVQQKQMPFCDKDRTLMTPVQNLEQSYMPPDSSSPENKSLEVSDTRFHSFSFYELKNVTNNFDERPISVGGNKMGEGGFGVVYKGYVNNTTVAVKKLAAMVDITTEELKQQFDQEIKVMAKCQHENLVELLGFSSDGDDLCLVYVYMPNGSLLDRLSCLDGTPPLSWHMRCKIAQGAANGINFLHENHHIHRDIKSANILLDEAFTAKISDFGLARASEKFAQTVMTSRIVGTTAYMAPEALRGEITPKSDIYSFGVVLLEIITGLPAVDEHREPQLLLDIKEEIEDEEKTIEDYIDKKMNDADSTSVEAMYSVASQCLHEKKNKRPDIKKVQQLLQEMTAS
IRAK1 (His-TEV-IRAK1 (194-712)), sequence (P51617 194-712): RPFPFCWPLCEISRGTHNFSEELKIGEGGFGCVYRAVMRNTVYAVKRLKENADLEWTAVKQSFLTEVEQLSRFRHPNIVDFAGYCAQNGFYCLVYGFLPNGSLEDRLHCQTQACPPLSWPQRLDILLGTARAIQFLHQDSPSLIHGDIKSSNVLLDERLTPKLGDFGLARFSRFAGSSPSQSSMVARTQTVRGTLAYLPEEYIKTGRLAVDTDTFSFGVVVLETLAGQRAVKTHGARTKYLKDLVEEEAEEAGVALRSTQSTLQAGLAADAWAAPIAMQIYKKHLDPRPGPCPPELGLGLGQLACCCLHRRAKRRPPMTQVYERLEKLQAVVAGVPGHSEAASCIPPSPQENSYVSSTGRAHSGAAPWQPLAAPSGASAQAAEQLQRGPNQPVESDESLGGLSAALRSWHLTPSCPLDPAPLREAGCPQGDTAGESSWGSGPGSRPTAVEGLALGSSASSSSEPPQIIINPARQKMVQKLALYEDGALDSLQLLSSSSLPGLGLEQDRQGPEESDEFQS

For orientation: IC50 means the midpoint of a concentration-inhibition curve. With `CC(=O)NC[C@H]1C[C@@H](Nc2nc(-c3cccc(-c4cnn(C)c4)c3)ncc2-c2cnn(C)c2)C1` [Example 211, N-(3-{5-(1-Methyl-1H-pyrazol-4-yl)-2-[3-(1-methyl-1H-pyrazol-4-yl)-phenyl]-pyrimidin-4-ylamino}-cyclobutylmethyl)-acetamide], the IC50 was 100 to 1000 nM in test [1], 100 to 1000 nM in test [2] and 1000 to 5000 nM in test [3].

As to `CC(=O)NC12CC(Nc3nc(-c4cccc(-c5cnn(C)c5)c4)ncc3-c3cnn(C)c3)(C1)C2` [Example 266], the IC50 is less than 100 nM in test [1], less than 100 nM in test [2] and 100 to 1000 nM in test [3].

As to `Cn1cc(-c2cccc(-c3ncc(-c4cnn(C)c4)c(NC4CC(F)(F)C4)n3)c2)cn1` [Example 48], the half-maximal inhibitory concentration (IC50) is 100 to 1000 nM in test [1], 100 to 1000 nM in test [2] and more than 5000 nM in test [3].

For `Cn1cc(-c2cccc(-c3ncc(-c4cnn(C)c4)c(N[C@H]4CCC[C@H](F)[C@H]4O)n3)c2)cn1` (single isomer, unassigned) [Example 285], the values for the IC50 in test [1], in test [2] and in test [3] were 100 to 1000 nM, less than 100 nM and 100 to 1000 nM, respectively.

Turning to `Cn1cc(-c2cccc(-c3ncc(-c4cnn(C)c4)c(OCC4CCCO4)n3)c2)cn1` (stereo not drawn) [Example 118], the half-inhibitory concentration (IC50) in test [1] was 1000 to 5000 nM; in test [2], less than 100 nM; in test [3], 1000 to 5000 nM.

With `Cn1cc(-c2cccc(-c3ncc(-c4cnn(C)c4)c(NC4CCCC4)n3)c2)cn1` [Example 32], the values for the IC50 in test [1], in test [2] and in test [3] were 100 to 1000 nM, less than 100 nM and 1000 to 5000 nM, respectively.

`Cn1cc(-c2cccc(-c3ncc(-c4cnn(C)c4)c(N[C@H]4CC[C@H](NS(=O)(=O)C5CC5)CC4)n3)c2)cn1` [Example 276]: the IC50 was less than 100 nM in test [1], less than 100 nM in test [2] and 100 to 1000 nM in test [3].

Turning to `Cn1cc(-c2cccc(-c3ncc(-c4cnn(C)c4)c(N[C@@H]4CCCC(F)(F)[C@H]4O)n3)c2)cn1` [Example 287, (1S,6R)-2,2-Difluoro-6-{5-(1-methyl-1H-pyrazol-4-yl)-2-[3-(1-methyl-1H-pyrazol-4-yl)-phenyl]-pyrimidin-4-ylamino}-cyclohexanol], the IC50 in test [1] was 100 to 1000 nM; in test [2], less than 100 nM; in test [3], 1000 to 5000 nM.

Regarding `Cn1cc(-c2cccc(-c3ncc(-c4cnn(C)c4)c(NCC(O)C(F)(F)F)n3)c2)cn1` (stereo not drawn) [Example 275], the results for the IC50 in test [1], in test [2] and in test [3] were 100 to 1000 nM, less than 100 nM and 100 to 1000 nM, respectively.

On to `Cn1cc(-c2cccc(-c3ncc(-c4cnn(C)c4)c(N[C@@H]4CNC[C@H]4O)n3)c2)cn1` (racemic) [Example 113], for which the values for the IC50 in test [1], in test [2] and in test [3] were 100 to 1000 nM, less than 100 nM and 1000 to 5000 nM, respectively.

As for `CN(CC1CC(F)(F)C1)c1nc(-c2cccc(-c3cnn(C)c3)c2)ncc1-c1cnn(C)c1` [Example 141], the IC50 in test [1] was in the range of 1000 to 5000 nM; in test [2] it was 100 to 1000 nM; in test [3], 1000 to 5000 nM.

For `Cn1cc(-c2cccc(-c3ncc(-c4cnn(C)c4)c(N[C@H]4CC[C@H](O)CC4)n3)c2)cn1` [Example 149], the IC50 in test [1] is 100 to 1000 nM; in test [2] it was less than 100 nM; in test [3], 100 to 1000 nM.

As for `Cn1cc(-c2cccc(-c3ncc(-c4cnn(C)c4)c(N[C@H]4CCC[C@@H](O)[C@H]4O)n3)c2)cn1` [Example 268], the IC50 in test [1], in test [2] and in test [3] was less than 100 nM each time.

In the case of `Cn1cc(-c2cccc(-c3ncc(-c4cnn(C)c4)c(O[C@@H]4CCC[C@@H](N)[C@@H]4O)n3)c2)cn1` (racemic) [Example 134, (1S,2R,6R)-2-Amino-6-{5-(1-methyl-1H-pyrazol-4-yl)-2-[3-(1-methyl-1H-pyrazol-4-yl)-phenyl]-pyrimidin-4-yloxy}-cyclohexanol], the IC50 in test [1], in test [2] and in test [3] was less than 100 nM in each case.

For the molecule `Cn1cc(-c2cccc(-c3ncc(-c4cnn(C)c4)c(N[C@H]4CCC[C@H](O)[C@@H]4O)n3)c2)cn1` [Example 208, (1S,2R,3S)-3-{5-(1-Methyl-1H-pyrazol-4-yl)-2-[3-(1-methyl-1H-pyrazol-4-yl)-phenyl]-pyrimidin-4-ylamino}-cyclohexane-1,2-diol], the IC50 in test [1] is 100 to 1000 nM; in test [2], less than 100 nM; in test [3], 100 to 1000 nM.

On to `CN[C@H]1CCC[C@H](Nc2nc(-c3cccc(-c4cnn(C)c4)c3)ncc2-c2cnn(C)c2)[C@@H]1O` (racemic) [Example 281, (1R,2S,6S)-2-Methylamino-6-{5-(1-methyl-1-pyrazol-4-yl)-2-[3-(1-methyl-1H-pyrazol-4-yl)-phenyl]-pyrimidin-4-ylamino}-cyclohexanol], for which the IC50 is more than 5000 nM in test [1], less than 100 nM in test [2] and 1000 to 5000 nM in test [3].

Regarding `Cn1cc(-c2cccc(-c3ncc(-c4cnn(C)c4)c(NCCN4CCS(=O)(=O)CC4)n3)c2)cn1` [Example 55], the IC50 in test [1] was 100 to 1000 nM; in test [2] it was less than 100 nM; in test [3] it was 1000 to 5000 nM.

As to `Cn1cc(-c2cccc(-c3ncc(-c4cnn(C)c4)c(NCC4CC(F)(F)C4)n3)c2)cn1` [Example 42], the IC50 in test [1], in test [2] and in test [3] was 100 to 1000 nM throughout.

As for `Cn1cc(-c2cccc(-c3ncc(-c4cnn(C)c4)c(NCCN4CCOCC4)n3)c2)cn1` [Example 36], the IC50 is 1000 to 5000 nM in test [1], 100 to 1000 nM in test [2] and 100 to 1000 nM in test [3].

With `Cn1cc(-c2cccc(-c3ncc(-c4cnn(C)c4)c(NCCC(C)(C)O)n3)c2)cn1` [Example 135], the IC50 is 100 to 1000 nM in test [1], less than 100 nM in test [2] and 100 to 1000 nM in test [3].

Turning to `Cn1cc(-c2cccc(-c3ncc(-c4cnn(C)c4)c(NCCCS(C)(=N)=O)n3)c2)cn1` (stereo not drawn) [Example 282], the values for the IC50 in test [1], in test [2] and in test [3] were 1000 to 5000 nM, 100 to 1000 nM and more than 5000 nM, respectively.

Turning to `Cn1cc(-c2cccc(-c3ncc(-c4cnn(C)c4)c(NC4CCOC4)n3)c2)cn1` (stereo not drawn) [Example 41], the IC50 in test [1] fell in the range of 100 to 1000 nM; in test [2], 100 to 1000 nM; in test [3], 1000 to 5000 nM.

Consider `CN1CCC(CNc2nc(-c3cccc(-c4cnn(C)c4)c3)ncc2-c2cnn([C@H]3CC[C@]4(CCC(=O)N4C)CC3)c2)CC1` [Example 87, 1-Methyl-8-(4-{4-[(1-methyl-piperidin-4-ylmethyl)-amino]-2-[3-(1-methyl-1H-pyrazol-4-yl)-phenyl]-pyrimidin-5-yl}-pyrazol-1-yl)-1-aza-spiro[4.5]decan-2-one], for which the IC50 was 1000 to 5000 nM in test [1], less than 100 nM in test [2] and 1000 to 5000 nM in test [3].

Take `Cn1cc(-c2cccc(-c3ncc(-c4ccn(C)n4)c(NC4CC(CN)(CCl)C4)n3)c2)cn1` (stereo not drawn) [Example 99]: the figures for the IC50 in test [1], in test [2] and in test [3] were 100 to 1000 nM, less than 100 nM and 100 to 1000 nM, respectively.

For `Cc1nnc(-c2cnc(-c3cccc(-c4cnn(C)c4)c3)nc2NC2CCC(N)CC2)s1` (stereo not drawn) [Example 128], the figures for the IC50 in test [1], in test [2] and in test [3] were 100 to 1000 nM, less than 100 nM and 100 to 1000 nM, respectively.

`Cn1cc(-c2cccc(-c3ncc(-c4ccn(C)n4)c(NCC4CCCNC4)n3)c2)cn1` (stereo not drawn) [Example 10, {5-(1-Methyl-1H-pyrazol-3-yl)-2-[3-(1-methyl-1H-pyrazol-4-yl)-phenyl]-pyrimidin-4-yl}-piperidin-3-ylmethyl-amine]: the IC50 in test [1] was 100 to 1000 nM; in test [2], 100 to 1000 nM; in test [3], 1000 to 5000 nM.

Regarding `Cn1cc(-c2cccc(-c3ncc(-c4cnn(C)c4)c(NC4CCC(O)C4)n3)c2)cn1` (racemic) [Example 167], the IC50 in test [1] was 1000 to 5000 nM; in test [2] it was less than 100 nM; in test [3] it was 1000 to 5000 nM.

Turning to `CC(C)Nc1nc(-c2cccc(-c3cnn(C)c3)c2)ncc1-c1nnc(C2CCNCC2)s1` [Example 210], the 50% inhibitory concentration (IC50) in test [1] is 100 to 1000 nM; in test [2] it was less than 100 nM; in test [3], 100 to 1000 nM.

As to `Cc1nnc(-c2cnc(-c3cccc(-c4cnn(C)c4)c3)nc2NCCN2CCOCC2)s1` [Example 146], the IC50 in test [1] was more than 5000 nM; in test [2] it was less than 100 nM; in test [3], 1000 to 5000 nM.

In the case of `Cn1cc(-c2cccc(-c3ncc(-c4cnn(C)c4)c(NC45CC(NS(C)(=O)=O)(C4)C5)n3)c2)cn1` [Example 270], the IC50 in test [1], in test [2] and in test [3] was less than 100 nM in each case.

For the molecule `Cn1cc(-c2cccc(-c3ncc(-c4cnn(C)c4)c(NCC4CCOCC4)n3)c2)cn1` [Example 13, {5-(1-Methyl-1H-pyrazol-4-yl)-2-[3-(1-methyl-1H-pyrazol-4-yl)-phenyl]-pyrimidin-4-yl}-(tetrahydro-pyran-4-ylmethyl)-amine], the half-inhibitory concentration (IC50) in test [1] was 100 to 1000 nM; in test [2] it was 100 to 1000 nM; in test [3], 1000 to 5000 nM.
